# Results taken from patent US6818212B2, “Antimicrobial composition containing a haloperoxidase, a hydrogen peroxide source, a halide source and an ammonium source” (Novozymes A/S, priority 1997, dated 2004).
# Experiments:
# Type in all cases: cell-based
# [1] = system: Staphylococcus epidermidis DSM 20 042; assay: Bactericidal activity of haloperoxidase with ammonium halides vs potassium/sodium halides as electron donors, Example 3; details: for bactericidal activity (possible): ammonium halide salt as electron donor, summary of Table 1; for Log reduction in cell number: haloperoxidase 1 mg/l, 0.5 mM H2O2, pH 6.0, 15 min 40° C.
# Protocol: (§1) The bactericidal activity was determined by incubation in Malthus. The detection times measured by the Malthus instrument were converted to cfu/ml by a calibration curve.
# (§2) Either direct or indirect Malthus measurements were used when enumerating total survival cells (Malthus Flexi M2060, Malthus Instrument Limited). By the direct measurements, the cell metabolism was determined by conductance measurements in the growth substrate. By the indirect measurements, 3 ml of growth medium was transferred to the outer chamber of the indirect Malthus cells, and 0.5 ml of sterile KOH (0.1 M) was transferred to the inner chamber. The cell suspensions were after enzyme treatment transferred to the outer chamber of the Malthus cell. As cells are growing in the outer chamber they produce CO2 which will dissolve in the KOH in the inner chamber and thereby change the conductance of the KOH. The amount of CO2 formed by the respiring cells surviving the enzyme treatment was used for estimating the number of viable cells. When the conductance change is measurable by the Malthus, a detection time (dt) will be recorded. The dt's were converted to colony counts by use of a calibration curve relating cfu/ml to dt (FIG. 1).
# (§3) The antibacterial activity of a haloperoxidase (1 mg/l) was tested in MES-buffer (2-[N-morpholino] ethanesulfonic acid) (pH 6.0) against Staphylococcus epidermidis DSM 20 042 with ammonium iodide, ammonium chloride or ammonium bromide as electron donors, and hydrogen peroxide was added as electron acceptor giving the final concentration 0.5 mM. The cells (approximately 10^6 cfu/ml) were incubated with enzyme for 15 min at 40° C. The bactericidal activity was determined by incubation in Malthus (see Example 1).
# [2] = system: Staphylococcus epidermidis DSM 20 042; assay: Bactericidal activity of haloperoxidase with iodide or bromide, with or without NH4+, Example 2; details: haloperoxidase 1 mg/l
# Protocol: as §1, §2
# as §3, with “potassium iodide and potassium” for “ammonium iodide, ammonium chloride or ammonium”, “donor,” for “donors,”, “peroxide (to a final concentration of 0.5 mM)” for “peroxide”, “in” for “giving”, “presence of NH4^+.” for “final concentration 0.5 mM.”
# [3] = system: Pseudomonas aeruginosa ATCC 10146; assay: Bactericidal activity of haloperoxidase (rCvP) system, Malthus detection, Example 1; details: haloperoxidase 1 mg/l, 0.5 mM H2O2, pH 6
# Protocol: (§4) The antibacterial activity of a haloperoxidase was tested in MES-buffer (2-[N-morpholino] ethanesulfonic acid)(pH 6.0) against Pseudomonas aeruginosa ATCC 10146 and Staphylococcus epidermidis DSM 20 042 with sodium chloride as electron donor, and hydrogen peroxide was added as electron acceptor in the presence of NH4+. The cells (approximately 10^6 cfu/ml) were incubated with the enzyme for 15 min at 40° C.
# as §1, §2
# (§5) Hydrogen peroxide was added to a final concentration of 0.5 mM.
# [4] = system: Staphylococcus epidermidis DSM 20 042; assay: as above; details: haloperoxidase 1 mg/l, 0.5 mM H2O2, pH 6
# Protocol: as §4, §1, §2, §5
# [5] = system: Staphylococcus epidermidis DSM 20 042; assay: Bactericidal activity of haloperoxidase with chloride and ethanolamine, HEPES pH 7.0, Example 4; details: haloperoxidase 1 mg/L, chloride 80 mM, ethanolamine 2.5 mM, 0.5 mM H2O2, pH 7.0
# Protocol: as §1
# as §2, with “The amount of CO2 formed by the respiring cells surviving the enzyme treatment was used for estimating the number of viable cells.” left out, “The dt's were converted to colony counts by use of a calibration curve relating cfu/ml to dt (FIG. 1).” left out
# The antibacterial activity of Curvularia verruculosa haloperoxidase (1 mg/L) was tested in HEPES-buffer (Sigma H3375)(pH 7.0) against Staphylococcus epidermidis DSM 20 042 with chloride (80 mM) as electron donor combined with ethanolamine (2.5 mM), and hydrogen peroxide was added as electron acceptor giving the final concentration 0.5 mM. […] The bactericidal activity was determined by incubation in Malthus (see Example 1).
# [6] = 0.5 mM H2O2, pH 6.0, no ammonium
smiles,measurement,setting,value
"Br.N [BrNH4, ammonium bromide]",bactericidal activity (possible),[1],100%
same,Log reduction in cell number,[1]; halide 4 mM,3.7 log cfu/ml
same,Log reduction in cell number,[1]; halide 8 mM,6.2 log cfu/ml
"Cl.N [ClNH4, ammonium chloride]",bactericidal activity (possible),[1],100%
same,Log reduction in cell number,[1]; halide 25 mM,6.2 log cfu/ml
same,Log reduction in cell number,[1]; halide 50 mM,6.2 log cfu/ml
"I.N [INH4, ammonium iodide]",bactericidal activity (possible),[1],100%
same,Log reduction in cell number,[1]; halide 0.21 mM,6.2 log cfu/ml
same,Log reduction in cell number,[1]; halide 0.5 mM,6.2 log cfu/ml
"[Br-].[K+] [KBr, potassium bromide]",bromide concentration needed for 100% bactericidal activity,[2]; [6],> 10 mM
same,Log reduction in cell number,[1]; halide 4 mM,2.8 log cfu/ml
same,Log reduction in cell number,[1]; halide 8 mM,5.4 log cfu/ml
"[I-].[K+] [KI, potassium iodide]",iodide concentration for 100% bactericidal activity,"[2]; 0.5 mM H2O2, pH 6.0, ammonium added (FIG. 3)",0.05-0.1 mm
same,iodide concentration for 100% antibacterial activity,[2]; [6],about 0.2 mM
same,Log reduction in cell number,[1]; halide 0.25 mM,5.1 log cfu/ml
same,Log reduction in cell number,[1]; halide 0.5 mM,6.1 log cfu/ml
"[Cl-].[Na+] [NaCl, sodium chloride]",NaCl concentration at which antibacterial activity was observed,[3],above 20 mM
same,NaCl concentration at which plateau of antibacterial activity was reached,[3],approximately 100 mM
same,NaCl concentration at which antibacterial activity was observed,[4],above 20 mM
same,NaCl concentration at which plateau of antibacterial activity was reached,[4],approximately 100 mM
same,Log reduction in cell number,[1]; halide 25 mM,0.5 log cfu/ml
same,Log reduction in cell number,[1]; halide 50 mM,0.8 log cfu/ml
NCCO [ethanolamine],kill,[5],100%
